Reference: patent US5681838A, “Substituted amino compounds, their preparation and their use as inhibitors of thrombocyte-aggregation” (Hoechst Aktiengesellschaft, priority 1993, dated 1997)
Read-outs that look alike come from different tables or passages of the source.

Key:
[1] = biological target: T1, fibrinogen receptor (glycoprotein IIb/IIIa) (Homo sapiens, UniProt P05106+P08514); assay: inhibition of binding of 125I-fibrinogen to its receptor on intact, gel-filtered human blood platelets; conditions: following stimulation with ADP (10 μM); read-out: Ki, ADP-stimulated (inhibition of the binding of 125I-fibrinogen)
T1 construct: on intact, gel-filtered human blood platelets; from tissue; host or cells: gel-filtered blood platelets from human donor blood
T1 sequence (P08514 32-887 limits assumed): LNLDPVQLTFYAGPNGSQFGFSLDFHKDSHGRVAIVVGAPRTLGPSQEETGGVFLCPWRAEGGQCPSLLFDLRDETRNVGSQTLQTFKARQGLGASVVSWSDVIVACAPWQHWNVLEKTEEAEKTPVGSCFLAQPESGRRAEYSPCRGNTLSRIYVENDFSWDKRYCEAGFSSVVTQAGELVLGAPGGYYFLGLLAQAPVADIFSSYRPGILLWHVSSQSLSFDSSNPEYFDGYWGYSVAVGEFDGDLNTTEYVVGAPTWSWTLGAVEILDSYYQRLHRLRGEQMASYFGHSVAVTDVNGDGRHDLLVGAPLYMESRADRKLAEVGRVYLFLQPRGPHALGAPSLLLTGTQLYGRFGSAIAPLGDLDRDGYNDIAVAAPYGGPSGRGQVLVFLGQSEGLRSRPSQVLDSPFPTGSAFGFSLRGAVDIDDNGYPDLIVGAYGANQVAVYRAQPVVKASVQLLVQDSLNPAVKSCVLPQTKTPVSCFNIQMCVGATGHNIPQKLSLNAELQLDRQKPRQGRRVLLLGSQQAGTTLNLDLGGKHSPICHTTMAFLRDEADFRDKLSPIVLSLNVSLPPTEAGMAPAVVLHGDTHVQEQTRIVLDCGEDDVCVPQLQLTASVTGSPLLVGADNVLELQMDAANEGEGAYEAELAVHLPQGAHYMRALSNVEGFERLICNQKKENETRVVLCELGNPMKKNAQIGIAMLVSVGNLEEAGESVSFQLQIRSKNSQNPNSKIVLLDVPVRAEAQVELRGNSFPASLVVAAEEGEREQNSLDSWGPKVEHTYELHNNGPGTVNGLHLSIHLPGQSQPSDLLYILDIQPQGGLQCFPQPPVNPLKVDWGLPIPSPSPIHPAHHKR
T1 sequence (P08514 891-1039 limits assumed): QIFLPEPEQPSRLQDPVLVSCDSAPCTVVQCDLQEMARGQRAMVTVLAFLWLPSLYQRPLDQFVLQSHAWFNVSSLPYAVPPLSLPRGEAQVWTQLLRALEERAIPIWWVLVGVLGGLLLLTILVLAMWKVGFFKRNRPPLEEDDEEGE
T1 sequence (P05106 27-788): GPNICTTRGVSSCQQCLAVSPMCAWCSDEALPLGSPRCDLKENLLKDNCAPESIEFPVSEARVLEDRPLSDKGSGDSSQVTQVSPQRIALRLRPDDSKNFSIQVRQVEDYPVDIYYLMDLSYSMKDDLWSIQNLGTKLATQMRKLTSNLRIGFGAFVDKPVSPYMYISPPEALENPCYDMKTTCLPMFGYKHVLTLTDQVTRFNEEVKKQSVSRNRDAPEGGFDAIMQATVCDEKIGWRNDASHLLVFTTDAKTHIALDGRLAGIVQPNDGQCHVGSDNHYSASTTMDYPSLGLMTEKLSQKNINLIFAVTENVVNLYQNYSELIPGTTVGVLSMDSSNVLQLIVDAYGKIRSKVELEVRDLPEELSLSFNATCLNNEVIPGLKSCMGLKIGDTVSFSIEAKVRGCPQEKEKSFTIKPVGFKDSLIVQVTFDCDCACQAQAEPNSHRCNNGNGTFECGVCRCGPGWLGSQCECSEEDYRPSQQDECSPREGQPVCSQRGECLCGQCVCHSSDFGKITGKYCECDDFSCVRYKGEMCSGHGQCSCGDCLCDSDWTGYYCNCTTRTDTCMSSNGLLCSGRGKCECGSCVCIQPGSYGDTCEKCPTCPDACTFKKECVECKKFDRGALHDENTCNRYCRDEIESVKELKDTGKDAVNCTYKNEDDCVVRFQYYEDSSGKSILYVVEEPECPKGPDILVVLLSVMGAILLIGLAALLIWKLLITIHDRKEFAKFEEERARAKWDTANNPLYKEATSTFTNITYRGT
Procedure: (§1) The compounds are tested, in particular, for their ability to inhibit blood-platelet aggregation and the adherence of fibrinogen to blood platelets (gel-filtered blood platelets from human donor blood are used which are activated with ADP or thrombin), as well as for their in-vivo ability to inhibit blood-platelet aggregation and thrombosis.
The test is of the ability of the compounds according to the invention to inhibit the binding of fibrinogen to its receptor (glycoprotein IIb/IIIa) on intact, gel-filtered human blood platelets. The value given is the Ki value for inhibition of the binding of ^125 I-fibrinogen following stimulation with ADP (10 μM). (Literature: J. S. Bennett and G. Vilaire, J. Clin. Invest. 64 (1979), 1393-1401; E. Kornecki et al., J. Biol. Chem. 256 (1981), 5695-5701; G. A. Marguerie et al., J. Biol. Chem. 254 (1979), 5357-5363; G. A. Marguerie et al., J. Biol. Chem. 255 (1980), 154-161).

[2] = system: gel-filtered human blood platelets; assay: inhibition of aggregation of gel-filtered human blood platelets following stimulation with ADP or thrombin; format: cell-based; conditions: Platelet
Procedure: as §1
As a functional test, the ability is measured of the compounds according to the invention to inhibit the aggregation of gel-filtered human blood platelets following stimulation with ADP or thrombin. The value given is the IC50 value of the inhibition. (Literature: G. A. Marguerie et al., J. Biol. Chem. 254 (1979), 5357-5363).

[3] = read-out: ADP-stimulated IC50 (inhibition of platelet aggregation)
[4] = read-out: Thrombin-stimulated IC50 (inhibition of platelet aggregation)

Row | Ki [1] [nM] | IC50 [2, 3] [nM] | IC50 [2, 4] [nM] | Structure (SMILES)
1 | 420 | 1500 | 1000 | N=C(N)c1ccc(C=CC(=O)NCCCN(CC(=O)O)C(=O)NC(C(=O)O)c2ccccc2)cc1 (centres unmarked) [Example 1, (1-(3-(3-(4-(Aminoiminomethyl)phenyl)acryloylamino)propyl)-3-(hydroxycarbonylphenylmethyl)ureido)acetic acid acetate]
2 |  | 20000 | 20000 | N=C(N)c1ccc(CC2NC(=O)N(CCN(CC(=O)O)C(=O)OCC3c4ccccc4-c4ccccc43)C2=O)cc1 (centres unmarked) [Example 2, (2-(4-(4-(Aminoiminomethyl)benzyl)-2,5-dioxoimidazolidin-1-yl)ethyl)-(9-fluorenylmethoxycarbonyl)aminoacetic acid]
